Biological target: T1, mGluR2 (Rattus norvegicus, UniProt P31421)
T1 construct: from tissue; host or cells: brain of living male Wistar rats (in vivo microPET)
Assay: MicroPET imaging: baseline, blocking and chase experiments
Format: in vivo, Wistar rats
Conditions: chase 0.3 mg/kg i.v. ~30 min after [^11C]B-2
Protocol: Imaging experiments were performed on a Focus™ 220 microPET scanner (Concorde Microsystems, Knoxyille, Tenn., USA) using healthy male Wistar rats. During all scan sessions, animals were kept under gas anesthesia (2.5% isoflurane in O2 at 1 L/min flow rate).
Dynamic scans of 90 min were acquired. After reconstruction of the images (filtered back projection), they were spatially normalized to an in-house created [^11C]raclopride template of the rat brain in Paxinos coordinates. Automated and symmetric volumes of interest (VOIs) were generated for different brain regions (striatum, cortex, cerebellum, hippocampus, hypothalamus, thalamus, substantia nigra, nucleus accumbens and lateral globus pallidus) from which time-activity curves (TAC) were constructed for each individual scan, using PMOD software (v 3.1, PMOD Technologies Ltd.). The radioactivity concentration in the different brain regions was expressed as SUV as a function of time p.i. of the radiotracer by normalization for body weight of the animal and injected dose.
Rats were injected with 30-60 MBq of high specific activity formulation of [^11C]B-4, [^11C]B-2, [^11C]B-7, or [^11C]B-10 via the tail vein under isoflurane anesthesia (2.5% in O2 at 1 L/min flow rate).
For pretreatment and displacement experiments, compound A, compound B or ritanserin were dissolved and administered in a vehicle containing 20% (2-hydroxypropyl)-β-cyclodextrine and two equivalents hydrochloric acid. The ritanserin solution was protected from light.
A self-blocking study was done by subcutaneous (s.c.) administration of the authentic reference material (for [^11C]B-4) at ˜30 min prior to the radiotracer injection. Displacement studies were performed by i.v. injection of compound B at dose 4, 1, 0.3 and 0.1 mg/kg, compound A at dose 1 mg/kg or ritanserin at dose 0.3 mg/kg. All chase compounds were injected ˜30 min after radiotracer injection. A wash-out period of at least four days was maintained between the different pretreatment and displacement studies.
[^11C]B-4 was evaluated in vivo in three rats which were scanned dynamically for 90 min using μPET. The first rat was used for a baseline scan. The second rat was pretreated with authentic reference material B-4 via s.c. administration (dose 10 mg/kg) at 30 min prior to tracer injection. The third rat was used in a chase experiment and was injected i.v. with authentic reference material B-4 (dose 3 mg/kg) 30 min after tracer injection.
Two rats were injected with high specific activity tracer ([^11C]B-4, [^11C]B-2, [^11C]B-7, or [^11C]B-10) and scanned dynamically for 90 min. The first rat was scanned baseline, the second rat was injected i.v. with compound B (dose 4 mg/kg) 30 min after tracer injection. Table 16 gives an overview of the maximum and minimum SUV values in the chase experiment for the four studied tracers.
A chase experiment was performed for [^11C]B-2 with different doses of compound B (4, 1, 0.3, 0.1 mg/kg). The chase compound was injected i.v. 30 min after tracer injection. Table 17 gives an overview of the average SUV values before and after injection of the chase for the total brain.

T1 sequence (P31421 19-872): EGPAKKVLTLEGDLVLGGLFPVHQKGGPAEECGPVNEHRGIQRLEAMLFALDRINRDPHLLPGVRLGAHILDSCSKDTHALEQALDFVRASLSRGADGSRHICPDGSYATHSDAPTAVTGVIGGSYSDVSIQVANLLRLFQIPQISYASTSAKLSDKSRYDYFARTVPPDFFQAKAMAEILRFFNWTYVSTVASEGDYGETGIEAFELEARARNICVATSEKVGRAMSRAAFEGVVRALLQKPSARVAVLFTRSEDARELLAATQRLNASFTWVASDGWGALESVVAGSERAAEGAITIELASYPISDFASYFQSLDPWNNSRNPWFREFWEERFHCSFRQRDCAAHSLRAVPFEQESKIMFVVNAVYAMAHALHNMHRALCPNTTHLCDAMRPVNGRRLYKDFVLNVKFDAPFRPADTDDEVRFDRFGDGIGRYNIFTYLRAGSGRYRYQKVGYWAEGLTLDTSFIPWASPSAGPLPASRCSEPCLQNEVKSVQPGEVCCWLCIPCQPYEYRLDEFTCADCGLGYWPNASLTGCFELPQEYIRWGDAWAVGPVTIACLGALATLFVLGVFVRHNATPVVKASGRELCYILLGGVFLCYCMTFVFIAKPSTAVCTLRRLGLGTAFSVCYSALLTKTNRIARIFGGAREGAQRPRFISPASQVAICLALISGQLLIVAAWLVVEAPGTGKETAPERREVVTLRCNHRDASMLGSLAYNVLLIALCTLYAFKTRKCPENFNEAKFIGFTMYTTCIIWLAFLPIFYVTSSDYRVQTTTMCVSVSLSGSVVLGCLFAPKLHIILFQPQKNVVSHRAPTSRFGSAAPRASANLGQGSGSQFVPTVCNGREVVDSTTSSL

- effect of the chase compound on the binding of [^11C]B-2: no significant effect
SMILES: Cc1nc2sccn2c(=O)c1CCN1CCC(=C(c2ccc(F)cc2)c2ccc(F)cc2)CC1 [Ritanserin, ritanserin, reference compound]

From patent US20130230459A1, “RADIOLABELLED mGluR2 PET LIGANDS” (Janssen Pharmaceuticals, Inc., priority 2010, published 2013)
